Experimental data published in patent publication US10294202B2, “Pyrrolidinones as herbicides” (FMC Corporation, priority 2013, dated 2019).
Where two headings read alike, the source gives them in different places.

Tests used:
crabgrass, large = assay: Test C pre-/postemergence herbicide test; format: in vivo, Digitaria sanguinalis
Method in brief: (§1)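 Pre- and postemergence greenhouse screen. Preemergence treatment went onto freshly planted seeds in loam–sand soil; postemergence treatment went onto plants 2 to 18 cm tall at the 1- to 4-leaf stage in sphagnum peat/vermiculite medium. Scoring at 13 to 15 days used a 0–100 control scale.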

ryegrass, Italian = assay: Test C pre-/postemergence herbicide test; format: in vivo, Lolium multiflorum
Method in brief: as §1

johnsongrass = assay: Test C pre-/postemergence herbicide test; format: in vivo, Sorghum halepense
From the text: (§2) Seeds of plant species selected from blackgrass (Alopecurus myosuroides), ryegrass, Italian (Italian ryegrass, Lolium multiflorum), wheat (winter wheat, Triticum aestivum), galium (catchweed bedstraw, Galium aparine), corn (Zea mays), crabgrass, large (large crabgrass, Digitaria sanguinalis), foxtail, giant (giant foxtail, Setaria faberii), johnsongrass (Sorghum halepense), lambsquarters (Chenopodium album), morningglory (Ipomoea coccinea), nutsedge, yellow (yellow nutsedge, Cyperus esculentus), pigweed (Amaranthus retroflexus), ragweed (common ragweed, Ambrosia elatior), soybean (Glycine max), barnyardgrass (Echinochloa crus-galli), oilseed rape (Brassica napus), waterhemp (common waterhemp, Amaranthus rudis), kochia (Kochia scoparia), oat, wild (wild oat, Avena fatua), surinam grass (Brachiaria decumbens), foxtail, green (green foxtail, Setaria viridis), goosegrass (Eleusine indica), bromegrass, downy (downy bromegrass, Bromus tectorum), nightshade (eastern black nightshade, Solanum ptycanthum), cocklebur (common cocklebur, Xanthium strumarium), cupgrass, woolly (woolly cupgrass, Eriochloa villosa), bermudagrass (Cynodon dactylon), sunflower, (common oilseed sunflower, Helianthus annuus), Russian thistle (Salsola kali) and velvetleaf (Abutilon theophrasti) were planted into a blend of loam soil and sand and treated preemergence with test chemicals formulated in a non-phytotoxic solvent mixture which included a surfactant. At the same time, plants selected from these crop and weed species and also barley (winter barley, Hordeum vulgare), […]), chickweed (common chickweed, Stellaria media), deadnettle (henbit deadnettle, Lamium amplexicaule), and canarygrass (littleseed canarygrass, Phalaris minor) were planted in pots containing Redi-Earth® planting medium (Scotts Company, 14111 Scottslawn Road, Marysville, Ohio 43041) comprising spaghnum peat moss, vermiculite, wetting agent and starter nutrients and treated with postemergence applications of test chemicals formulated in the same manner. Plants ranged in height from 2 to 18 cm (1- to 4-leaf stage) for postemergence treatments. Treated plants and controls were maintained in a greenhouse for 13 to 15 days, after which time all species were compared to controls and visually evaluated. Plant response ratings, summarized in Table C, are based on a scale of 0 to 100 where 0 is no effect and 100 is complete control. A dash (-) response means no test result.

giant foxtail = assay: Test A pre-/postemergence herbicide test; format: in vivo, Setaria faberii; details: for pest or weed control at 500 g/ha: 500 g ai/ha; for pest or weed control at 1000 g/ha: 1000 g ai/ha
Method in brief: (§3)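 Visual injury ratings, 0 = no effect, 100 = complete control, taken ~10 days after treatment against untreated greenhouse controls. Preemergence: directed soil spray onto seeded loam/sand pots. Postemergence: spray onto plants at one- to two-leaf stage, 2–10 cm tall.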

wheat = assay: Test A pre-/postemergence herbicide test; format: in vivo, Triticum aestivum; details: for plant injury at 500 g/ha / plant injury at 1000 g/ha: Triticum aestivum, 240 h, read-out: Plant response rating, Wheat; for plant injury at 500 g/ha: 500 g ai/ha; for plant injury at 1000 g/ha: 1000 g ai/ha
Method in brief: as §3

pigweed = assay: Test A pre-/postemergence herbicide test; format: in vivo, Amaranthus retroflexus; details: for pest or weed control at 500 g/ha / pest or weed control at 1000 g/ha: Amaranthus retroflexus, 240 h, read-out: Plant response rating, Pigweed; for pest or weed control at 500 g/ha: 500 g ai/ha; for pest or weed control at 1000 g/ha: 1000 g ai/ha
Method in brief: as §3

ragweed = assay: Test C pre-/postemergence herbicide test; format: in vivo, Ambrosia elatior
Method in brief: as §1

nutsedge, yellow = assay: Test C pre-/postemergence herbicide test; format: in vivo, Cyperus esculentus
From the text: as §2

blackgrass = assay: Test C pre-/postemergence herbicide test; format: in vivo, Alopecurus myosuroides
From the text: as §2

foxtail, giant = assay: Test C pre-/postemergence herbicide test; format: in vivo, Setaria faberii
From the text: as §2

[1] = Preemergence, 62 g ai/ha, scale 0 to 100
[2] = Preemergence, 125 g ai/ha, scale 0 to 100 (0 no effect, 100 complete control)
[3] = Preemergence, 31 g ai/ha, scale 0 to 100 (0 no effect, 100 complete control)
[4] = Preemergence, 250 g ai/ha, scale 0 to 100 (0 no effect, 100 complete control)
[5] = Preemergence, 125 g ai/ha, visual rating on 0 to 100 scale (0 no effect, 100 complete control)
[6] = Setaria faberi, post-emergence, 240 h, Postemergence, 0 to 100 scale (0 no effect, 100 complete control), read-out: Plant response rating, Foxtail, Giant
[7] = post-emergence, Postemergence, 0 to 100 scale (0 no effect, 100 complete control)
[8] = pre-emergence, preemergence, 0 to 100 scale
[9] = Postemergence, 31 g ai/ha, scale 0 (no effect) to 100 (complete control)
[10] = Postemergence, 62 g ai/ha, scale 0 to 100 (0 no effect, 100 complete control)
[11] = Postemergence, 125 g ai/ha, scale 0 to 100 (0 no effect, 100 complete control)
[12] = Postemergence, 250 g ai/ha, scale 0 to 100 (0 no effect, 100 complete control)
[13] = pre-emergence, Preemergence, visual rating on 0 to 100 scale (0 no effect, 100 complete control), approx. 10 days

With `O=C1NCCC1C(=O)N(c1ccc(F)c(F)c1)c1ccccc1F` (stereo not drawn) [Compound 5, N-(3,4-difluorophenyl)-N-(2-fluorophenyl)-2-oxo-3-pyrrolidinecarboxamide] the “Plant response rating, Crabgrass, Large” value (crabgrass, large; [1]) was 100, the “Plant response rating, Crabgrass, Large” value (crabgrass, large; [2]) was 100 and the “Crabgrass, Large plant response rating” value (crabgrass, large; [3]) was 100. The “Plant response rating, Crabgrass, Large” value (crabgrass, large; [4]) was 100, the “Plant response rating, Ryegrass, Italian” value (ryegrass, Italian; [1]) was 0 and the “Plant response rating, Ryegrass, Italian” value (ryegrass, Italian; [2]) was 0. For the same compound, the “Plant response rating, Johnsongrass” value (johnsongrass; [1]) was 0, the “Plant response rating, Johnsongrass” value (johnsongrass; [2]) was 0 and the “Foxtail, Giant plant response rating” value (giant foxtail; [5]) was 90. For the same compound, the pest or weed control at 125 g/ha (giant foxtail; Setaria faberi, post-emergence, 240 h, Postemergence, 125 g ai/ha, 0 to 100 scale, 0 no effect, 100 complete control, read-out: Plant response rating, Foxtail, Giant) was 80%, the pest or weed control at 500 g/ha (giant foxtail; [6]) was 80% and the pest or weed control at 500 g/ha (giant foxtail; Setaria faberi, pre-emergence, 240 h, preemergence, 0 to 100 scale, read-out: Plant response rating, Foxtail, Giant) was 100%. For the same compound, the “Wheat plant response rating” value (wheat; [5]) was 0, the plant injury at 500 g/ha (wheat; [7]) was 0% and the plant injury at 500 g/ha (wheat; [8]) was 0%. For the same compound, the pest or weed control at 500 g/ha (pigweed; [7]) was 0%, the pest or weed control at 500 g/ha (pigweed; [8]) was 0% and the “Pigweed plant response rating” value (pigweed; [5]) was 0. The “Plant response rating, Ragweed” value (ragweed; [1]) was 0, the “Plant response rating, Ragweed” value (ragweed; [2]) was 0 and the “Plant response rating, Nutsedge, Yellow” value (nutsedge, yellow; [1]) was 0. For the same compound, the “Plant response rating, Nutsedge, Yellow” value (nutsedge, yellow; [2]) was 0, the “Plant response rating, Blackgrass” value (blackgrass; [1]) was 0 and the “Plant response rating, Blackgrass” value (blackgrass; [2]) was 0. For the same compound, the “Blackgrass plant response rating” value (blackgrass; [3]) was 0, the “Plant response rating, Blackgrass” value (blackgrass; [4]) was 30 and the “Plant response rating, Foxtail, Giant” value (foxtail, giant; [1]) was 100. For the same compound, the “Plant response rating, Foxtail, Giant” value (foxtail, giant; [2]) was 100, the “Foxtail, Giant plant response rating” value (foxtail, giant; [3]) was 95 and the “Plant response rating, Foxtail, Giant” value (foxtail, giant; [4]) was 100.
In the case of `O=C1NCC(c2ccc(F)c(F)c2)C1C(=O)Nc1cccc(F)c1F` (stereo not drawn) [Compound 17, N-(2,3-difluorophenyl)-4-(3,4-difluorophenyl)-2-oxo-3-pyrrolidinecarboxamide], the “Plant response rating, Crabgrass, Large” value (crabgrass, large; [9]) is reported as 0, the “Plant response rating, Crabgrass, Large” value (crabgrass, large; [10]) is reported as 0 and the “Plant response rating, Crabgrass, Large” value (crabgrass, large; [11]) is reported as 45. For the same compound, the “Plant response rating, Crabgrass, Large” value (crabgrass, large; [12]) was 70, the “Plant response rating, Crabgrass, Large” value (crabgrass, large; [1]) was 98 and the “Plant response rating, Crabgrass, Large” value (crabgrass, large; [2]) was 100. The “Crabgrass, Large plant response rating” value (crabgrass, large; [3]) was 95, the “Plant response rating, Crabgrass, Large” value (crabgrass, large; [4]) was 100 and the “Plant response rating, Ryegrass, Italian” value (ryegrass, Italian; [9]) was 0. For the same compound, the “Plant response rating, Ryegrass, Italian” value (ryegrass, Italian; [10]) was 0, the “Plant response rating, Ryegrass, Italian” value (ryegrass, Italian; [11]) was 0 and the “Plant response rating, Ryegrass, Italian” value (ryegrass, Italian; [12]) was 5. The “Plant response rating, Ryegrass, Italian” value (ryegrass, Italian; [1]) was 5, the “Plant response rating, Ryegrass, Italian” value (ryegrass, Italian; [2]) was 35 and the “Plant response rating, Johnsongrass” value (johnsongrass; [9]) was 0. For the same compound, the “Plant response rating, Johnsongrass” value (johnsongrass; [10]) was 0, the “Plant response rating, Johnsongrass” value (johnsongrass; [11]) was 0 and the “Plant response rating, Johnsongrass” value (johnsongrass; [12]) was 0. For the same compound, the “Plant response rating, Johnsongrass” value (johnsongrass; [1]) was 5, the “Plant response rating, Johnsongrass” value (johnsongrass; [2]) was 65 and the pest or weed control at 1000 g/ha (giant foxtail; [6]) was 90%. The pest or weed control at 1000 g/ha (giant foxtail; Setaria faberi, pre-emergence, 240 h, Preemergence, visual rating on 0 to 100 scale (0 no effect, 100 complete control), approx. 10 days, read-out: Plant response rating, Foxtail, Giant) was 90%, the plant injury at 1000 g/ha (wheat; [7]) was 60% and the plant injury at 1000 g/ha (wheat; [13]) was 70%. For the same compound, the pest or weed control at 1000 g/ha (pigweed; [7]) was 40%, the pest or weed control at 1000 g/ha (pigweed; [13]) was 50% and the “Plant response rating, Ragweed” value (ragweed; [9]) was 0. The “Plant response rating, Ragweed” value (ragweed; [10]) was 0, the “Plant response rating, Ragweed” value (ragweed; [11]) was 0 and the “Plant response rating, Ragweed” value (ragweed; [12]) was 0. For the same compound, the “Plant response rating, Ragweed” value (ragweed; [1]) was 0, the “Plant response rating, Ragweed” value (ragweed; [2]) was 30 and the “Plant response rating, Nutsedge, Yellow” value (nutsedge, yellow; [9]) was 0. The “Plant response rating, Nutsedge, Yellow” value (nutsedge, yellow; [10]) was 0, the “Plant response rating, Nutsedge, Yellow” value (nutsedge, yellow; [11]) was 0 and the “Plant response rating, Nutsedge, Yellow” value (nutsedge, yellow; [12]) was 0. For the same compound, the “Plant response rating, Nutsedge, Yellow” value (nutsedge, yellow; [1]) was 0, the “Plant response rating, Nutsedge, Yellow” value (nutsedge, yellow; [2]) was 0 and the “Plant response rating, Blackgrass” value (blackgrass; [9]) was 0. For the same compound, the “Plant response rating, Blackgrass” value (blackgrass; [10]) was 0, the “Plant response rating, Blackgrass” value (blackgrass; [11]) was 0 and the “Plant response rating, Blackgrass” value (blackgrass; [12]) was 0. The “Plant response rating, Blackgrass” value (blackgrass; [1]) was 50, the “Plant response rating, Blackgrass” value (blackgrass; [2]) was 80 and the “Blackgrass plant response rating” value (blackgrass; [3]) was 5. For the same compound, the “Plant response rating, Blackgrass” value (blackgrass; [4]) was 95, the “Plant response rating, Foxtail, Giant” value (foxtail, giant; [9]) was 0 and the “Plant response rating, Foxtail, Giant” value (foxtail, giant; [10]) was 0. For the same compound, the “Plant response rating, Foxtail, Giant” value (foxtail, giant; [11]) was 0, the “Plant response rating, Foxtail, Giant” value (foxtail, giant; [12]) was 10 and the “Plant response rating, Foxtail, Giant” value (foxtail, giant; [1]) was 95. For the same compound, the “Plant response rating, Foxtail, Giant” value (foxtail, giant; [2]) was 100, the “Foxtail, Giant plant response rating” value (foxtail, giant; [3]) was 90 and the “Plant response rating, Foxtail, Giant” value (foxtail, giant; [4]) was 100.
